“Also recorded” adds a separate entry of the source.

Test [1] addresses hemoglobin in fresh bovine red blood cells (Bos taurus, UniProt P01966+P02070). As to the kind of experiment: Oxygen binding of fresh bovine red blood cells (p50). The class given is cell-based. Particulars: for RBC (p50): bovine RBC, effector 0.5 mM, pH 7.4, 37 °C. On the procedure:
(§1) Human blood was collected on heparin from healthy nonsmoking donors. Bovine blood was provided by Pr Delpech, INA (Paris-Grignon). Red blood cells were washed three times in isotonic buffer, kept at 4° C., and used within 24 h after sampling. Hemoglobin Yakima, a high-oxygen-affinity variant [α2 β2 99 (G1) Asp>>His], was obtained from a known heterozygous carrier. Fresh Yakima red cells were processed in the same way as described above.
(§2) L3,5 and L3,4,5 were provided by Dr. Lalezari (Montefiore Hospital, New York); RSR-4 [2-[4-[[(3,5-dichloroanilino)carbonyl]methyl]phenoxy]-2-methylpropionic acid]and RSR13 [2-4-[[(3,5- dimethylanilino)carbonyl]methyl]phenoxy]-2-methylpropionic acid] have been synthesized following the procedure described in Randad et al. (J. Med. Chem. 34,752 (1991)). Human serum albumin (HSA), bovine serum albumin (BSA) and 4,4'diisothiocyanatostilbene-2,2'-disulfonate (DIDS) were purchased from Sigma (St. Louis, Mo.). Due to their low solubility in aqueous buffer, 10 mM stock solutions of the compounds were prepared in a slight exccess of sodium bicarbonate and back-titrated to pH 7.4. For example, RSR-4 or RSR-13 was dissolved at 60° C. in a 140 mM NaCl and 50 mM bis-Tris buffer at room temperature upon progressive addition of NaHCO3 to obtain 10 mM stock solutions. The pH was carefully adjusted to 7.4 after complete solubilization and before use of the solutions. Fresh solutions were prepared each week. Stock solutions of DIDS (1 mM) were prepared, in the dark, on the day of the experiments in a pH 7.4 buffer. Human serum albumin (defatted HSA) and bovine serum albumin (BSA) were prepared freshly as 1 mM stock solutions, pH 7.4. Equilibrium Measurements. The allosteric modulation of the effectors on freshly prepared solutions of hemoglobin or red cell suspensions was measured by the change in p50, the partial pressure of oxygen for half-saturation. Oxygen equilibrium curves (OEC) were carried out with the Hemox analyzer (TCS, Southampton, Pa.) under the following conditions: pH 7.4, 140 mM NaCl and 50 mM bis-Tris buffer at 37° C. In all experiments, the concentration of hemoglobin in the red cell suspensions was 20-25 μM hemoglobin tetramer (Hb4) as measured by Drabkin's method (cyanomethemoglobin) at the end of each recording. The final concentration of the allosteric effector in the cuvette was 0.5 mM, resulting in an effector/Hb4 ratio of 20 in the absence of albumin. OEC were also made in the same buffer containing 12.5, 25, 50, and 100 μM HSA (for human red cell suspensions) or BSA (for bovine cell suspensions). The serum albumin experiments were carried out with traces of an antifoaming agent. This agent has no deleterious effect on the red cell suspensions. The molar ratio of albumin to tetrameric hemoglobin was varied from 0.5 (at 12.5 μM HSA) to 4 (at 100 μM HSA); in whole blood this ratio is approximately 0.3 (0.7 mM albumin plus plasma proteins/2.25 mM Hb4). Therefore, the concentration of albumin used in the present studies was always larger relative to tetrameric hemoglobin than that found in whole blood.
Bovine Red Cell Studies. Table 2 presents data for oxygen binding measurements for fresh bovine red blood cells and isolated Hb solutions on addition of the effectors L3,5, RSR-4, and RSR-13. The experimental conditions used were the same as described in conjunction with Table 1 for human red blood cells. The oxygen equilibrium curves for Hb solutions were made at pH 7.2, 100 mM NaCl and 50 mM bis-Tris buffer at 25° C. Catalase (20 μg/mL) and 50 μM EDTA were added to oppose oxidation of the hemes. The concentration of the effectors was 0.5 mM in all conditions. In Table 2, BSA is bovine serum albumin and P50 (mmHg) is the pO2 for 50% saturation.

A further test relates to hemoglobin. As to the kind of experiment: Comparison of allosteric effector strength (right shift of oxygen equilibrium curve). Particulars: compounds of FIG. 1. Type of test: biochemical.
Test [2] addresses intracellular hemoglobin, human red cells (Homo sapiens, UniProt P68871+P69905). Briefly: Kinetics of interaction between effectors and intracellular hemoglobin (absorbance at 560 nm) in human red cell suspensions. Particulars: for ΔA560: effector 0.5 mM, room air. The class given is cell-based. The method, then: (§3) Equilibrium oxygen binding curves were also recorded for red cell suspensions (10% hematocrit) that had been reacted for 30 min in the dark at 37° C. with 20 μM DIDS, a specific inhibitor of the red cell membrane anion channel. Kinetic Experiments. The kinetics of the interaction between the effectors and intracellular hemoglobin were measured in the absence and presence of varying concentrations of HSA. The red cell suspensions were equilibrated under room air (pO2 =140 mmHg) at 37° C. in the optical cuvette of the Hemox analyzer, which provides a constant stirring of the suspensions. […] Changes in absorbance were recorded and stored on tape for further analyses.
An increase in absorbance at 560 nm (εmax for deoxy-Hb in the visible spectrum) under room air indicates the formation of partially deoxygenated Hb in the red cells and a decreased oxygen affinity of Hb, provided that the pH is held constant.
Examples of these kinetic recordings are illustrated in FIG. 4. Two indices were calculated from the experimental values: ΔA560 is the difference in optical density from the base line to the plateau and t1/2 is […]. […]

In test [3] the target is hemoglobin in fresh human red blood cells (Homo sapiens, UniProt P68871+P69905). As to the kind of experiment: Oxygen equilibrium curves of fresh human red cell suspensions (p50). The class given is cell-based. Particulars: for potency in raising p50 / lowering the oxygen affinity: fresh human red cells, absence of albumin; for P50: effector 0.5 mM, pH 7.4, 37 °C; for inhibition of the allosteric effect by albumin: human red cells, 50 or 100 μM HSA. On the procedure: as §1, §2
Sequence of hemoglobin in fresh human red blood cells (P69905 whole entry): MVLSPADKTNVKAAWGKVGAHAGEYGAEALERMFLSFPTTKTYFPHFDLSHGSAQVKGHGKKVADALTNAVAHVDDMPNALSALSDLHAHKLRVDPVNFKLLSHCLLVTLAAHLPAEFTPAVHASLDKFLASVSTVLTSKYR
Sequence of hemoglobin in fresh human red blood cells (P68871 whole entry): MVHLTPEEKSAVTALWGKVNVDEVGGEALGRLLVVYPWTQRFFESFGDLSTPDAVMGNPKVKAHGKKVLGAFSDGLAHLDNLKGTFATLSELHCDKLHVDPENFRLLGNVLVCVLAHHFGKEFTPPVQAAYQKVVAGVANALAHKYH
as §3, with “analyses. […]” for “analyses.”

[4] abbreviates: time for half-ΔA560, effector 0.5 mM, 12.5 μM HSA, 37 °C.
Where [5] appears, read: time for half-ΔA560, effector 0.5 mM, 50 μM HSA, 37 °C.
[6] abbreviates: time for half-ΔA560, effector 0.5 mM, 100 μM HSA, 37 °C.
Where [7] appears, read: time for half-ΔA560, effector 0.5 mM, no HSA, 37 °C.
Setting [8] is: human RBC pre-incubated 30 min with DIDS, no HSA.
Setting [9] is: human RBC suspension, 50 μM HSA.
[10] abbreviates: human RBC suspension, 100 μM HSA.

Sequence of hemoglobin in fresh bovine red blood cells (P01966 whole entry): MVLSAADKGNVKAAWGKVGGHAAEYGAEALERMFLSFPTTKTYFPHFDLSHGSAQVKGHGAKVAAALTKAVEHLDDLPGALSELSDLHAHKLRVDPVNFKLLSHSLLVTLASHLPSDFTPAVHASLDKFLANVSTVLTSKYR
Sequence of hemoglobin in fresh bovine red blood cells (P02070 whole entry): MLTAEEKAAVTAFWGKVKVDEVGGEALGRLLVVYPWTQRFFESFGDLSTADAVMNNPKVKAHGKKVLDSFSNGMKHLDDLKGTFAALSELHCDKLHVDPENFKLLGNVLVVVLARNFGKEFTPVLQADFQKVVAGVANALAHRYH
Sequence of intracellular hemoglobin, human red cells (P69905 whole entry): as the sequence (P69905 whole entry) above
Sequence of intracellular hemoglobin, human red cells (P68871 whole entry): as the sequence (P68871 whole entry) above

As to `CC(C)(Oc1ccc(NC(=O)Nc2cc(Cl)cc(Cl)c2)cc1)C(=O)O` [L3,5, reference compound], in test [1] (no BSA), the “RBC (p50)” value is recorded as 35 mmHg. Moreover, the “order of potency in lowering the oxygen affinity” value in test [1] (bovine red cells) is reported as “RSR-4>>L3,5>RSR-13”. Moreover, the p50 shift relative to control at 500 µM in test [1] (bovine red cells, 0.5 mM) was 30%. In addition, the “allosteric effector strength” value in the test on hemoglobin is “L3,5≈RSR-4>RSR-13; also recorded: much stronger allosteric effect”. Besides, the ΔA560 in test [2] (12.5 μM HSA, 37 °C) stood at 0.124; in test [2] (50 μM HSA, 37 °C), 0.058; in test [2] (100 μM HSA, 37 °C), 0.029; in test [2] (no HSA, 37 °C), 0.181. The t1/2 in test [2] (setting [4]) turned out to be 92.5 s; in test [2] (setting [5]), 110 s; in test [2] (setting [6]), 115 s; in test [2] (setting [7]) it was 33 s. Also, the “potency in raising p50 / lowering the oxygen affinity” value in test [3] is “comparable; also recorded: almost equally potent effectors; also recorded: L3,5≈RSR-4>RSR-13”. Moreover, the P50 in test [3] (setting [8]) was determined as 54 mm Hg; in test [3] (setting [9]) it was 32 mm Hg; in test [3] (setting [10]) it was 28 mm Hg; in test [3] (human RBC suspension, no HSA), 60 mm Hg.

Take `CC(C)(Oc1ccc(CC(=O)Nc2cc(Cl)cc(Cl)c2)cc1)C(=O)O` [RSR-4, 2-[4-[[(3,5-dichloroanilino)carbonyl]methyl]phenoxy]-2-methylpropionic acid]: the entries for the “RBC (p50)” value in test [1] (50 μM BSA) and in test [1] (no BSA) were 45 mmHg and 54 mmHg, respectively. The “order of potency in lowering the oxygen affinity” value in test [1] (bovine red cells) is recorded as “RSR-4>>L3,5>RSR-13”. The “effect on control p50” value in test [1] (bovine red cells, 0.5 mM, without and with 50 μM BSA) is “doubling of the control p50 and persists even in the presence of 50 μM BSA”. Also, the “allosteric effector strength” value with hemoglobin is recorded as “L3,5≈RSR-4>RSR-13”. Further, the ΔA560 is reported as 0.107 in test [2] (12.5 μM HSA, 37 °C); 0.086 in test [2] (50 μM HSA, 37 °C); 0.042 in test [2] (100 μM HSA, 37 °C); 0.152 in test [2] (no HSA, 37 °C). The t1/2 in test [2] (in the absence of albumin) came out at 60 s; in test [2] (setting [4]) it was 92 s; in test [2] (setting [5]), 76 s; in test [2] (setting [6]) it was 87 s; in test [2] (setting [7]) it was 60 s. For the same compound, the “potency in raising p50 / lowering the oxygen affinity” value in test [3] is “comparable; also recorded: almost equally potent effectors; also recorded: L3,5≈RSR-4>RSR-13”. Moreover, the P50 in test [3] (setting [8]) is on record as 49 mm Hg; in test [3] (human RBC suspension, 12.5 μM HSA), 48.5 mm Hg; in test [3] (setting [9]) it was 44.0 mm Hg; in test [3] (setting [10]), 36 mm Hg; in test [3] (human RBC suspension, no HSA), 52.5 mm Hg. Further, in test [3], the “inhibition of the allosteric effect by albumin” value is on record as “less inhibited by albumin than the closely related compound L3,5; also recorded: much lower inhibition of RSR-4 by serum albumin than that observed with L3,5; also recorded: much less inhibited by 50 or 100 μM albumin than observed with L3,5”.

`Cc1cc(C)cc(NC(=O)Cc2ccc(OC(C)(C)C(=O)O)cc2)c1` [RSR-13]: in test [1] (no BSA), the “RBC (p50)” value is given as 31 mmHg. Also, the “order of potency in lowering the oxygen affinity” value in test [1] (bovine red cells) is “RSR-4>>L3,5>RSR-13”. For the same compound, the p50 shift relative to control at 500 µM in test [1] (bovine red cells, 0.5 mM) is 15%. Further, the “allosteric effector strength” value in the test with hemoglobin is given as “L3,5≈RSR-4>RSR-13”. Moreover, the “change in t1/2 upon addition of albumin” value in test [2] (HSA added) is reported as “No change”. The ΔA560 is on record as 0.082 in test [2] (50 μM HSA, 37 °C); 0.067 in test [2] (100 μM HSA, 37 °C); 0.085 in test [2] (no HSA, 37 °C). The t1/2 result in test [2] (in the absence of albumin) is “over 2 min”; in test [2] (setting [5]) it was 138 s; in test [2] (setting [6]), 125 s; in test [2] (setting [7]), 139 s. Besides, the “potency in raising p50 / lowering the oxygen affinity” value in test [3] is “weakest in reducing the oxygen affinity of Hb, relative to L3,5 or RSR-4; also recorded: L3,5≈RSR-4>RSR-13”. For the same compound, the P50 in test [3] (setting [9]) is given as 34.0 mm Hg; in test [3] (setting [10]) it was 32.6 mm Hg; in test [3] (human RBC suspension, no HSA), 37.8 mm Hg. In addition, in test [3], the “inhibition of the allosteric effect by albumin” value was “much less affected by serum albumin, and its effect persists even in the presence of 100 1-M HSA”.

(Values after US5661182A, “Method for lowering oxygen affinity of hemoglobin in redcell suspensions, in whole blood and in vivo” (Virginia Commonwealth University, priority 1995, dated 1997).)
